Experiment: Inhibition of [3H](+)-pentazocine binding to sigma receptor of guinea pig brain homogenates

Compound: c1ccc2sc(C3(N4CCCCCC4)CCCCCC3)cc2c1 [1-(1-Benzo[b]thiophen-2-yl-cycloheptyl)-azepane]
- Ki: 2710 nM

Compound: c1ccc2sc(C3(N4CCCCC4)CCCCCC3)cc2c1 [1-(1-Benzo[b]thiophen-2-yl-cycloheptyl)-piperidine]
- Ki: 2230 nM

Compound: c1ccc2sc(C3(N4CCCC4)CCCCCC3)cc2c1 [1-(1-Benzo[b]thiophen-2-yl-cycloheptyl)-pyrrolidine]
- Ki: 720 nM

Compound: c1ccc2sc(C3(N4CCCCCC4)CCCCC3)cc2c1 [1-(1-Benzo[b]thiophen-2-yl-cyclohexyl)-azepane]
- Ki: 674 nM

Compound: c1ccc2sc(C3(N4CCCC4)CCCCC3)cc2c1 [1-(1-Benzo[b]thiophen-2-yl-cyclohexyl)-pyrrolidine]
- Ki: 168 nM

Compound: c1ccc2sc(C3(N4CCCCCC4)CCCC3)cc2c1 [1-(1-Benzo[b]thiophen-2-yl-cyclopentyl)-azepane]
- Ki: 2890 nM

Compound: c1ccc2sc(C3(N4CCCCC4)CCCC3)cc2c1 [1-(1-Benzo[b]thiophen-2-yl-cyclopentyl)-piperidine]
- Ki: 1100 nM

Compound: c1ccc2sc(C3(N4CCCC4)CCCC3)cc2c1 [1-(1-Benzo[b]thiophen-2-yl-cyclopentyl)-pyrrolidine]
- Ki: 125 nM

Compound: NC1(c2cc3ccccc3s2)CCCCCC1 [1-Benzo[b]thiophen-2-yl-cycloheptylamine]
- Ki: 9170 nM

Compound: NC1(c2cc3ccccc3s2)CCCCC1 [1-Benzo[b]thiophen-2-yl-cyclohexylamine]
- Ki: 3170 nM

Compound: NC1(c2cc3ccccc3s2)CCCC1 [1-Benzo[b]thiophen-2-yl-cyclopentylamine]
- Ki: 1730 nM

Reference: BindingDB's records for doi:10.1021/jm00061a009 (National Institute of Diabetes and Digestive and Kidney …, 1993)
